{"source": "ChEMBL document CHEMBL4420081", "about": "“Novel benzylamino substituted quinazolines and derivatives as sos1 inhibitors” (2018)", "key": {"[1]": {"test_system": "PC-9", "experiment": "Growth inhibition of human PC9 cells grown under 3D anchorage-independent soft-agar conditions at 1.85 nM incubated for 14 days by alamar blue dye based assay relative to control", "type": "functional", "details": "PC-9, 336 h, read-out: GI"}, "[2]": {"test_system": "PC-9", "experiment": "Growth inhibition of human PC9 cells grown under 3D anchorage-independent soft-agar conditions at 16.7 nM incubated for 14 days by alamar blue dye based assay relative to control", "type": "functional", "details": "PC-9, 336 h, read-out: GI"}, "[3]": {"test_system": "PC-9", "experiment": "Growth inhibition of human PC9 cells grown under 3D anchorage-independent soft-agar conditions at 0.617 nM incubated for 14 days by alamar blue dye based assay relative to control", "type": "functional", "details": "PC-9, 336 h, read-out: GI"}, "[4]": {"test_system": "PC-9", "experiment": "Growth inhibition of human PC9 cells grown under 3D anchorage-independent soft-agar conditions at 50 nM incubated for 14 days by alamar blue dye based assay relative to control", "type": "functional", "details": "PC-9, 336 h, read-out: GI"}, "[5]": {"test_system": "PC-9", "experiment": "Growth inhibition of human PC9 cells grown under 3D anchorage-independent soft-agar conditions at 5.56 nM incubated for 14 days by alamar blue dye based assay relative to control", "type": "functional", "details": "PC-9, 336 h, read-out: GI"}, "[6]": {"biological_target": "T1, Mitogen-activated protein kinase; ERK1/ERK2 (Homo sapiens) (UniProt P27361+P28482)", "T1 sequence (P27361 whole entry, looked up)": "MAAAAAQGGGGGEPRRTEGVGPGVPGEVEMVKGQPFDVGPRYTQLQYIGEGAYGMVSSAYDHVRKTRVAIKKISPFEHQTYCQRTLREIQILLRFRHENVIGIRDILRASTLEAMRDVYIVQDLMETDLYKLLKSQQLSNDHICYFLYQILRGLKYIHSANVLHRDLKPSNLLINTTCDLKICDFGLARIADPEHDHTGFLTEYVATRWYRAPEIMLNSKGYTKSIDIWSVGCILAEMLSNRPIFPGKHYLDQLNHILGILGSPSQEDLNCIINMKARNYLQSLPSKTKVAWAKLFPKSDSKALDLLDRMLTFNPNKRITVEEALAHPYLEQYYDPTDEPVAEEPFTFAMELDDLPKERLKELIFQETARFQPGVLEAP", "T1 sequence (P28482 whole entry, looked up)": "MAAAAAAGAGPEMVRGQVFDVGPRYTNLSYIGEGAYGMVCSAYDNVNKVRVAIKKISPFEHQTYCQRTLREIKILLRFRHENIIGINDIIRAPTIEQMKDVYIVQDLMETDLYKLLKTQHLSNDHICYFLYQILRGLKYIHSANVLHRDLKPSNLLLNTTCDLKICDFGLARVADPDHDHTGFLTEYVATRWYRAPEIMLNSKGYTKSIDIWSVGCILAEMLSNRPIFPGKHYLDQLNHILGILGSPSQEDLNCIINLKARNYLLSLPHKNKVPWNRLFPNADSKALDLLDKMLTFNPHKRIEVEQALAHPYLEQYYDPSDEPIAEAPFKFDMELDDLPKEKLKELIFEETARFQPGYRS", "experiment": "Inhibition of ERK1/2 phosphorylation at Thr202/Tyr204 residues in human MIAPaCa2 cells grown under 3D anchorage-independent soft-agar conditions at 50 nM incubated for 2 to 8 hrs by Western blotting analysis relative to control", "type": "cell-based"}, "[7]": {"test_system": "MIA PaCa-2", "experiment": "Antitumor activity against human MIAPaCa2 cells grown under 3D anchorage-independent soft-agar conditions at xenografted in BomTacNMRI-Foxn1 nu mouse assessed as inhibition of tumor regression at 0.125 mg/kg, po BID relative to control", "type": "functional, organism-based"}, "[8]": {"test_system": "MIA PaCa-2", "experiment": "Antitumor activity against human MIAPaCa2 cells grown under 3D anchorage-independent soft-agar conditions at xenografted in BomTacNMRI-Foxn1 nu mouse assessed as inhibition of tumor regression at 0.05 mg/kg, po BID relative to control", "type": "functional, organism-based"}, "[9]": {"biological_target": "T1, Mitogen-activated protein kinase; ERK1/ERK2 (Homo sapiens)", "experiment": "Inhibition of ERK1/2 phosphorylation in human MIAPaCa2 cells grown under 3D anchorage-independent soft-agar conditions at assessed as increase in MEK1/2 phosphorylation at Ser 217/221 residues at 25 nM incubated for 2 to 8 hrs by Western blotting analysis", "type": "cell-based"}, "[10]": {"test_system": "A549", "experiment": "Growth inhibition of human A549 cells grown under 3D anchorage-independent soft-agar conditions at 3330 nM incubated for 14 days by alamar blue dye based assay relative to control", "type": "functional", "details": "A549, 336 h, read-out: GI"}, "[11]": {"test_system": "A549", "experiment": "Growth inhibition of human A549 cells grown under 3D anchorage-independent soft-agar conditions at 1110 nM incubated for 14 days by alamar blue dye based assay relative to control", "type": "functional", "details": "A549, 336 h, read-out: GI"}, "[12]": {"test_system": "A549", "experiment": "Growth inhibition of human A549 cells grown under 3D anchorage-independent soft-agar conditions at 370 nM incubated for 14 days by alamar blue dye based assay relative to control", "type": "functional", "details": "A549, 336 h, read-out: GI"}, "[13]": {"test_system": "A549", "experiment": "Growth inhibition of human A549 cells grown under 3D anchorage-independent soft-agar conditions at 164 nM incubated for 14 days by alamar blue dye based assay relative to control", "type": "functional", "details": "A549, 336 h, read-out: GI"}, "[14]": {"test_system": "A549", "experiment": "Growth inhibition of human A549 cells grown under 3D anchorage-independent soft-agar conditions at 123 nM incubated for 14 days by alamar blue dye based assay relative to control", "type": "functional", "details": "A549, 336 h, read-out: GI"}, "[15]": {"test_system": "SW900", "experiment": "Growth inhibition of human SW900 cells grown under 3D anchorage-independent soft-agar conditions at 3330 nM incubated for 14 days by alamar blue dye based assay relative to control", "type": "functional", "details": "SW900, 336 h, read-out: GI"}, "[16]": {"test_system": "SW900", "experiment": "Growth inhibition of human SW900 cells grown under 3D anchorage-independent soft-agar conditions at 1110 nM incubated for 14 days by alamar blue dye based assay relative to control", "type": "functional", "details": "SW900, 336 h, read-out: GI"}, "[17]": {"test_system": "SW900", "experiment": "Growth inhibition of human SW900 cells grown under 3D anchorage-independent soft-agar conditions at 370 nM incubated for 14 days by alamar blue dye based assay relative to control", "type": "functional", "details": "SW900, 336 h, read-out: GI"}, "[18]": {"test_system": "NCI-H1792", "experiment": "Growth inhibition of human NCI-H1792 cells grown under 3D anchorage-independent soft-agar conditions at 123 nM incubated for 14 days by alamar blue dye based assay relative to control", "type": "functional", "details": "NCI-H1792, 336 h, read-out: GI"}, "[19]": {"test_system": "NCI-H1792", "experiment": "Growth inhibition of human NCI-H1792 cells grown under 3D anchorage-independent soft-agar conditions at 370 nM incubated for 14 days by alamar blue dye based assay relative to control", "type": "functional", "details": "NCI-H1792, 336 h, read-out: GI"}, "[20]": {"test_system": "SW900", "experiment": "Growth inhibition of human SW900 cells grown under 3D anchorage-independent soft-agar conditions at 164 nM incubated for 14 days by alamar blue dye based assay relative to control", "type": "functional", "details": "SW900, 336 h, read-out: GI"}, "[21]": {"test_system": "NCI-H1792", "experiment": "Growth inhibition of human NCI-H1792 cells grown under 3D anchorage-independent soft-agar conditions at 1110 nM incubated for 14 days by alamar blue dye based assay relative to control", "type": "functional", "details": "NCI-H1792, 336 h, read-out: GI"}, "[22]": {"test_system": "NCI-H1792", "experiment": "Growth inhibition of human NCI-H1792 cells grown under 3D anchorage-independent soft-agar conditions at 3330 nM incubated for 14 days by alamar blue dye based assay relative to control", "type": "functional", "details": "NCI-H1792, 336 h, read-out: GI"}, "[23]": {"test_system": "NCI-H1792", "experiment": "Growth inhibition of human NCI-H1792 cells grown under 3D anchorage-independent soft-agar conditions at 164 nM incubated for 14 days by alamar blue dye based assay relative to control", "type": "functional", "details": "NCI-H1792, 336 h, read-out: GI"}, "[24]": {"test_system": "SW900", "experiment": "Growth inhibition of human SW900 cells grown under 3D anchorage-independent soft-agar conditions at 123 nM incubated for 14 days by alamar blue dye based assay relative to control", "type": "functional", "details": "SW900, 336 h, read-out: GI"}, "[25]": {"test_system": "NCI-H2122", "experiment": "Growth inhibition of human NCI-H2122 cells grown under 3D anchorage-independent soft-agar conditions at 370 nM incubated for 14 days by alamar blue dye based assay relative to control", "type": "functional", "details": "NCI-H2122, 336 h, read-out: GI"}, "[26]": {"test_system": "NCI-H2122", "experiment": "Growth inhibition of human NCI-H2122 cells grown under 3D anchorage-independent soft-agar conditions at 123 nM incubated for 14 days by alamar blue dye based assay relative to control", "type": "functional", "details": "NCI-H2122, 336 h, read-out: GI"}, "[27]": {"test_system": "NCI-H2122", "experiment": "Growth inhibition of human NCI-H2122 cells grown under 3D anchorage-independent soft-agar conditions at 1110 nM incubated for 14 days by alamar blue dye based assay relative to control", "type": "functional", "details": "NCI-H2122, 336 h, read-out: GI"}, "[28]": {"test_system": "NCI-H2122", "experiment": "Growth inhibition of human NCI-H2122 cells grown under 3D anchorage-independent soft-agar conditions at 3330 nM incubated for 14 days by alamar blue dye based assay relative to control", "type": "functional", "details": "NCI-H2122, 336 h, read-out: GI"}, "[29]": {"test_system": "NCI-H2122", "experiment": "Growth inhibition of human NCI-H2122 cells grown under 3D anchorage-independent soft-agar conditions at 164 nM incubated for 14 days by alamar blue dye based assay relative to control", "type": "functional", "details": "NCI-H2122, 336 h, read-out: GI"}}, "note": "Activity calls are given as the source filed them. The rule behind the calls is not given here.", "data": [{"smiles": "C#Cc1cccc(Nc2ncnc3cc(OCCOC)c(OCCOC)cc23)c1", "note": "[ERLOTINIB]", "values": [{"measurement": "inhibition of growth at 0.00185 µM", "setting": "[1]", "result": 12, "unit": "%"}, {"measurement": "inhibition of growth at 0.0167 µM", "setting": "[2]", "result": 147, "unit": "%"}, {"measurement": "inhibition of growth at 0.000617 µM", "setting": "[3]", "result": 0, "unit": "%"}, {"measurement": "inhibition of growth at 0.05 µM", "setting": "[4]", "result": 199, "unit": "%"}, {"measurement": "inhibition of growth at 0.00556 µM", "setting": "[5]", "result": 49, "unit": "%"}]}, {"smiles": "CC(=O)Nc1cccc(-n2c(=O)n(C3CC3)c(=O)c3c(Nc4ccc(I)cc4F)n(C)c(=O)c(C)c32)c1", "values": [{"measurement": "inhibition", "setting": "[6]", "result": "65 to 75", "unit": "%"}, {"measurement": "inhibition", "setting": "[7]", "result": "inactive"}, {"measurement": "inhibition", "setting": "[8]", "result": "inactive"}, {"measurement": "inhibition", "setting": "[9]", "result": "Active"}]}, {"smiles": "COc1cc(F)c(F)c(Nc2ccc(I)cc2F)c1NS(=O)(=O)C1(C[C@H](O)CO)CC1", "note": "[REFAMETINIB]", "values": [{"measurement": "inhibition of growth at 3.33 µM", "setting": "[10]", "result": 209, "unit": "%"}, {"measurement": "inhibition of growth at 1.11 µM", "setting": "[11]", "result": 75, "unit": "%"}, {"measurement": "inhibition of growth at 0.37 µM", "setting": "[12]", "result": 11, "unit": "%"}, {"measurement": "inhibition of growth at 0.164 µM", "setting": "[13]", "result": 212, "unit": "%"}, {"measurement": "inhibition of growth at 0.123 µM", "setting": "[14]", "result": 5, "unit": "%"}]}, {"smiles": "COC(=O)c1ccc2c(c1)NC(=O)/C2=C(\\Nc1ccc(N(C)C(=O)CN2CCN(C)CC2)cc1)c1ccccc1", "note": "[NINTEDANIB]", "values": [{"measurement": "inhibition of growth at 3.33 µM", "setting": "[15]", "result": 19, "unit": "%"}, {"measurement": "inhibition of growth at 1.11 µM", "setting": "[16]", "result": -18, "unit": "%"}, {"measurement": "inhibition of growth at 0.37 µM", "setting": "[17]", "result": -37, "unit": "%"}, {"measurement": "inhibition of growth at 0.123 µM", "setting": "[18]", "result": 1, "unit": "%"}, {"measurement": "inhibition of growth at 0.37 µM", "setting": "[19]", "result": 7, "unit": "%"}, {"measurement": "inhibition of growth at 0.164 µM", "setting": "[20]", "result": 199, "unit": "%"}, {"measurement": "inhibition of growth at 1.11 µM", "setting": "[21]", "result": 26, "unit": "%"}, {"measurement": "inhibition of growth at 3.33 µM", "setting": "[22]", "result": 86, "unit": "%"}, {"measurement": "inhibition of growth at 0.164 µM", "setting": "[23]", "result": 186, "unit": "%"}, {"measurement": "inhibition of growth at 0.123 µM", "setting": "[24]", "result": -39, "unit": "%"}]}, {"smiles": "CCN1CCN(Cc2ccc(Nc3ncc(F)c(-c4cc(F)c5nc(C)n(C(C)C)c5c4)n3)nc2)CC1", "note": "[ABEMACICLIB]", "values": [{"measurement": "inhibition of growth at 0.37 µM", "setting": "[25]", "result": 73, "unit": "%"}, {"measurement": "inhibition of growth at 0.123 µM", "setting": "[26]", "result": 10, "unit": "%"}, {"measurement": "inhibition of growth at 1.11 µM", "setting": "[27]", "result": 91, "unit": "%"}, {"measurement": "inhibition of growth at 3.33 µM", "setting": "[28]", "result": 81, "unit": "%"}, {"measurement": "inhibition of growth at 0.164 µM", "setting": "[29]", "result": 103, "unit": "%"}]}]}
